Experimental data from PubChem BioAssay (NCI).
Several values for one entry are separate records, joined by “and”; a condition that tells them apart may be missing. Identical values can stand only once.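 These data come from cells grown in 96-well plates and exposed to compound for 48 hours at five concentrations. At the GI50, growth is halved. TGI marks complete inhibition of growth.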

Assays:
Test in all cases: growth of human tumour cells (NCI), 48 h
786-0 renal = test system: 786-0 renal
CCRF-CEM leukemia = test system: CCRF-CEM leukemia
DU-145 prostate = test system: DU-145 prostate
EKVX NSCLC = test system: EKVX NSCLC
HL-60(TB) leukemia = test system: HL-60(TB) leukemia
OVCAR-4 ovarian = test system: OVCAR-4 ovarian
OVCAR-8 ovarian = test system: OVCAR-8 ovarian
SF-268 CNS = test system: SF-268 CNS
SF-295 CNS = test system: SF-295 CNS
SF-539 CNS = test system: SF-539 CNS

SMILES	GI50 (786-0 renal)	TGI (786-0 renal)	GI50 (CCRF-CEM leukemia) [µM]	TGI (CCRF-CEM leukemia) [µM]	GI50 (DU-145 prostate)	TGI (DU-145 prostate)	GI50 (EKVX NSCLC)	TGI (EKVX NSCLC)	GI50 (HL-60(TB) leukemia)	TGI (HL-60(TB) leukemia)	GI50 (OVCAR-4 ovarian)	TGI (OVCAR-4 ovarian) [µM]	GI50 (OVCAR-8 ovarian)	TGI (OVCAR-8 ovarian) [µM]	GI50 (SF-268 CNS)	TGI (SF-268 CNS)	GI50 (SF-295 CNS)	TGI (SF-295 CNS)	GI50 (SF-539 CNS)	TGI (SF-539 CNS)
Cc1cc(S(=O)(=O)Nc2nc3ccccc3c(=O)n2Cc2ccco2)c(S)cc1Cl	36.1 µM	> 100 µM	29.2	> 100	30.7 µM	> 100 µM	22.8 µM	70.6 µM	74.3 µM	> 100 µM	87.7 µM	> 100	57.7 µM	> 100	40.6 µM	> 100 µM	31.8 µM	> 100 µM	31.5 µM	84.5 µM
CC[C@]12C=CCN3CC[C@@]4(c5ccc(OC)cc5N(C)[C@H]4[C@@](O)(C(=O)OC)[C@@H]1OC(=O)CCC(=O)O[C@H]1CC[C@H]4[C@@H]5CCC6=CC(=O)CC[C@@H]6[C@H]5CC[C@]14C)[C@@H]32	1.99 µM	> 50 µM	1.66	> 50	2.73 µM	> 50 µM	1.7 µM	> 50 µM	1.07 µM	2.57 µM	1.79 µM	> 50	2.24 µM	> 50	2.17 µM	> 50 µM	1.69 µM	> 50 µM	1.75 µM	7.21 µM
CS(=O)(=O)Nc1cc(-c2ccc3ncc(C#N)c(Nc4ccc(F)c(Cl)c4)c3c2)cnc1Cl	0.256 µM		0.0911	> 31	0.242 µM	> 22.1 µM	0.275 µM	3.29 µM	0.12 µM	0.741 µM	0.243 µM		0.331 µM	> 100	0.133 µM		0.181 µM	0.82 µM	0.109 µM	0.79 µM
CN1C(=O)C(N=Nc2ccc([N+](=O)[O-])cc2)SC1=S (stereo unspecified)	8.12 µM and 10.7 µM	80 µM and 58.2 µM	6.51	> 100	7.11 µM and 22.1 µM	41.6 µM and > 100 µM	2.82 µM and 8.54 µM	28 µM and 96.9 µM	0.678 µM and 2.84 µM	8.68 µM and 8.38 µM	6.35 µM and 9.5 µM	> 100	4.38 µM and 11 µM	> 100	6.1 µM and 17.3 µM	99.5 µM and > 100 µM	1.62 µM and 3.04 µM	6.27 µM and 24.9 µM	6.57 µM and 7.08 µM	58.1 µM and 70.4 µM
CCOC(=O)C#Cc1cccc(C#CC(=O)OCC)c1		8.85 µM		6.34		17.9 µM		2.42 µM		4.06 µM		7.59		26		16.7 µM		3.48 µM		9.65 µM
C=C(C)COc1ccc2c(c1)CCC1C2CCC2(C)C(=O)/C(=N/O)CC12 (stereo unspecified)		13 µM		6.61		7.93 µM		9.32 µM		5.92 µM		9.69		24.1		23.3 µM		19.3 µM		26.3 µM
COc1cccc2nc(Nc3cccc(NC(=O)c4ccc(N5CCN(C)CC5)c(C(F)(F)F)c4)c3)ccc12	0.923 µM	1.78 µM	1.4	50	1.81 µM	6.38 µM	1.83 µM	6.92 µM	1.07 µM	2.35 µM	1.43 µM	6.67	1.69 µM	5.93	1.5 µM	7.3 µM	0.967 µM	1.92 µM	0.895 µM	1.66 µM
CCCCCCCCCCCCCCCC(=O)NS(=O)(=O)OC[C@H]1O[C@@H](n2cnc3c(N)ncnc32)[C@H](O)[C@@H]1O	< 0.0491 µM			10.6	< 0.0462 µM	3.98 µM	0.271 µM	1.74 µM	0.454 µM	4.72 µM	0.0392 µM	0.255	0.3 µM	1.28	< 0.0481 µM	1.28 µM	1.01 µM	2.31 µM	0.118 µM	0.359 µM
COc1ccc(-c2nc3sccn3c2-c2ccnc(NCCNS(=O)(=O)c3ccc(C(F)(F)F)cc3)n2)cc1	0.641 µM	11.3 µM	0.37	> 100	1.53 µM	> 100 µM	4.04 µM	> 100 µM	0.494 µM	> 100 µM	1.99 µM	39.6	2.85 µM	> 100	1.41 µM	50.9 µM	2.24 µM	5.58 µM	2.55 µM	7.77 µM
Clc1nc(Cl)c2ncn(-c3ccccc3)c2n1	5.51 µM	18.3 µM	2.7	6.55	1.44 µM	2.96 µM	4.49 µM	19.2 µM	1.96 µM	4.21 µM	10.5 µM	24.5	4.4 µM	19	3.26 µM	15.4 µM	10.3 µM	23 µM	10.6 µM	27.3 µM
Nc1nc2ccc(CNc3ccc(C(=O)NC(CC(=O)O)C(=O)O)cc3)cc2c(=O)[nH]1 (stereo unspecified)	2.18 µM	> 100 µM	4.86	> 100	1.58 µM	> 100 µM		> 100 µM	1.13 µM	> 100 µM	> 100 µM	> 100	1.16 µM	> 100	5 µM	> 100 µM	1 µM	> 28.7 µM	3.3 µM	> 100 µM
O=C(/C=C(/C=C/c1cccc2[nH]ccc12)OB(F)F)/C=C/c1cccc2[nH]ccc12	0.477 µM	5.03 µM	0.324		0.753 µM	2.07 µM	1.46 µM	5.54 µM	0.641 µM	7.23 µM	0.554 µM	24.7	0.347 µM	> 100	1.13 µM	3.98 µM	1.76 µM	4.61 µM	2.16 µM	5.86 µM
O=C(O)CN1C(=O)OC(c2ccccc2)C1=O (stereo unspecified)		> 100 µM		> 100		> 100 µM		> 100 µM		> 100 µM		> 100		> 100		> 100 µM		> 100 µM		> 100 µM
CCN1CCN(Cc2ccc(NC(=O)Nc3nc(-c4cc(OC)c(OC)c(OC)c4)cs3)cc2C(F)(F)F)CC1	1.66 µM	3.15 µM	1.87	6.07	2.07 µM	4.92 µM	1.81 µM	4.25 µM	1.94 µM	4.25 µM	1.47 µM	5.13			1.87 µM	5.76 µM	1.55 µM	3.13 µM	1.69 µM	3.12 µM
